In patent publication US11725037B2, “Peptide dual agonists of GIPR and GLP2R” (University of Copenhagen, priority 2017, dated 2023):
Read-outs that look alike come from different tables or passages of the source. Ends that are not written are not given here.

How the values were obtained:
human GLP-2 receptor = molecular target: T1, human GLP-2 receptor (Homo sapiens, UniProt O95838); test: cAMP accumulation assay (HitHunter cAMP XS) in transiently transfected COS-7 cells expressing the human GLP-2 receptor; assay type: cell-based; details: for Emax at 10 µM: COS-7, read-out: Emax (10 μM), GLP-2 receptor; for fold (fold change of native GLP-2), GLP-2 receptor: EC50 relative to native GLP-2; for Emax at 1 µM: COS-7, read-out: Emax, GLP-2 receptor
T1 construct: host or cells: COS-7 (transient, calcium phosphate; pCMV-Script vector)
T1 sequence (O95838 1-553): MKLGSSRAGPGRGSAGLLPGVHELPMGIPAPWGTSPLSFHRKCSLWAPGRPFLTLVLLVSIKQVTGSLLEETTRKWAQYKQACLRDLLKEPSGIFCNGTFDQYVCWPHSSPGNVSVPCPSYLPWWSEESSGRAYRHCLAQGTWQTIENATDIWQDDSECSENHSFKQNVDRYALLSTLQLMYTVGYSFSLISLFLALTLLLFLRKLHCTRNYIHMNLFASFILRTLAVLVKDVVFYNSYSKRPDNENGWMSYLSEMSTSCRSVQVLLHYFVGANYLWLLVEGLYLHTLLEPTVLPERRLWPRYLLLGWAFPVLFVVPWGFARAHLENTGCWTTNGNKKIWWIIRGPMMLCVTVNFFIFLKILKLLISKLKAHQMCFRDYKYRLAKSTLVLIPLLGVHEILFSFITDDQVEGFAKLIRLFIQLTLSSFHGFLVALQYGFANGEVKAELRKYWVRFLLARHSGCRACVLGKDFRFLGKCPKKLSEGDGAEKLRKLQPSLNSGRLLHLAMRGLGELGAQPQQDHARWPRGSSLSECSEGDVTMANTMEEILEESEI
Method: (§1) The day after, the cells were washed twice with Hepes buffered saline (HBS) buffer and incubated with HBS and 1 mM 3-isobutyl-1-methylxanthine (IBMX) for 30 min at 37° C. Ligands were added and incubated for 30 min at 37° C. The HitHunter™ cAMP XS assay (DiscoveRx) was carried out according to the manufacturer's instructions.

human GIP receptor = molecular target: T2, human GIP receptor (Homo sapiens, UniProt P48546); test: cAMP accumulation assay (HitHunter cAMP XS) in transiently transfected COS-7 cells expressing the human GIP receptor; assay type: cell-based; details: for Emax at 10 µM: COS-7, read-out: Emax (10 μM), GIP receptor; for fold (fold change of native GIP), GIP receptor: EC50 relative to native GIP; for Emax at 1 µM: COS-7, read-out: Emax, GIP receptor
T2 construct: host or cells: COS-7 (transient, calcium phosphate; pCMV-Script vector)
T2 sequence (P48546 22-466): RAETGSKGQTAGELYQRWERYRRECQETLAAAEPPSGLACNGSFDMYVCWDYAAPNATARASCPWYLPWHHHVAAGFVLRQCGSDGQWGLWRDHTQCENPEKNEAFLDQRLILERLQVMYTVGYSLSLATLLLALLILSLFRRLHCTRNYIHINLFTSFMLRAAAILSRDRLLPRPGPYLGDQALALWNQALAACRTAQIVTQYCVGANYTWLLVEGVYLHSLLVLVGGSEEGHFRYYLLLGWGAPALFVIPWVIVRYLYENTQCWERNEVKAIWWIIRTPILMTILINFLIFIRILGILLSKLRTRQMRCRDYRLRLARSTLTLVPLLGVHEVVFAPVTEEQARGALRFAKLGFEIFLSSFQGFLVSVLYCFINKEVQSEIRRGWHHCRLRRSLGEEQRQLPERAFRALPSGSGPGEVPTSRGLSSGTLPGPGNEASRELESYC
Method: as §1

[1] = EC50(nM), GLP-2 receptor, Table 1, cAMP, COS-7
[2] = logEC50, GLP-2 receptor, Table 1, cAMP, COS-7
[3] = logEC50, GIP receptor, Table 1, log value, cAMP, COS-7

Row | Sequence | Emax at 10 µM (human GLP-2 receptor) [%] | EC50 (human GLP-2 receptor; [1]) [nM] | fold (fold change of native GLP-2), GLP-2 receptor (human GLP-2 receptor; Table 1) [fold] | EC50 (human GLP-2 receptor; [2]) [nM] | Emax at 10 µM (human GIP receptor) [%] | fold (fold change of native GIP), GIP receptor (human GIP receptor; Table 1) [fold] | EC50 (human GIP receptor; [3]) [nM] | EC50 (human GIP receptor) [nM] | EC50 (human GLP-2 receptor) [nM] | Emax at 1 µM (human GLP-2 receptor) [%] | Emax at 1 µM (human GIP receptor) [%]
1 | HAEGSFISDYSTILDNLAARDFINWLIQTKITD [Co-agonist 4] | 90 | 25 | 21 | 25.7 | 83 | 427 | 38 |  |  |  | 
2 | HAEGTFISDMNTILDNLAARDFINWLIQTKITD [Co-agonist 6] | 70 |  | 50 |  | 83 | 1933 |  |  |  |  | 
3 | HAEGTFISDYSIAMDKLAARDFINWLIQTKITD [Co-agonist 7] | 78 |  | 293 |  | 92 | 292 |  | 25.7 |  |  | 
4 | HAEGTFISDYSTILDNIHQQDFINWLIQTKITD [Co-agonist 8] | 22 |  |  |  | 100 | 66 |  |  | > 10000 |  | 
5 | HAEGTFISDYSTILDNLAARDFINWLIQTKGKK [Co-agonist 10] | 77 |  | 18 |  | 100 | 61 |  |  | 21.9 |  | 
6 | HAEGTFISDYSTILDNLAARDFINWLIQTKITD [Co-agonist 1] |  |  | 82 |  |  | 337 |  | 29.5 |  | 93 | 100
7 | HAEGTFISDYSTILDNLAARDFINWLIQTKITDNDWKHNITQ [Co-agonist 2] |  |  | 121 |  |  | 135 |  | 12 |  | 93 | 100
8 | HAEGTFISDYSTILDNLAARDFVNWLLAQKITD [Co-agonist 9] | 67 |  | 103 |  | 100 | 36 |  | 3.16 |  |  | 
9 | HAEGTFSDEYSTILDNLAARDFINWLIQTKITD [Co-agonist 5] | 91 | 6.2 | 5.2 |  | 75 | 5124 |  |  |  |  | 
10 | HGDGTFISDYSTILDNLAARDFINWLIQTKITD [Co-agonist 11] | 87 |  | 20 | 24 | 95 | 36 | 3.16 |  |  |  | 
11 | HVDGTFISDYSTILDNLAARDFINWLIQTKITD [Co-agonist 12] | 81 |  | 21 | 25.1 | 96 | 12 | 1.1 |  |  |  | 
